{"source": "paper PMC7238232", "about": "“Acamprosate Is a Substrate of the Human Organic Anion Transporter (OAT) 1 without OAT3 Inhibitory Properties: Implications for Renal Acamprosate Secretion and Drug–Drug Interactions” (Pharmaceutics, 2020)", "key": {"B^0,+AT/rBAT": {"tested_on": "B^0,+AT/rBAT", "conditions": "Caco-2 cells, preliminary data; cited from earlier work"}, "PEPT1": {"tested_on": "PEPT1", "conditions": "Caco-2 cells, preliminary data; cited from earlier work"}, "[1]": {"conditions": "no reference given; cited from earlier work"}, "[2]": {"assay": "Clinical pharmacokinetics in humans (literature)", "conditions": "for Cmax,u: acamprosate, calculated"}, "[3]": {"conditions": "cited from earlier work"}, "OAT3": {"target": "T1, OAT3 (Homo sapiens, UniProt Q8TCC7)", "T1 sequence (Q8TCC7 1-542)": "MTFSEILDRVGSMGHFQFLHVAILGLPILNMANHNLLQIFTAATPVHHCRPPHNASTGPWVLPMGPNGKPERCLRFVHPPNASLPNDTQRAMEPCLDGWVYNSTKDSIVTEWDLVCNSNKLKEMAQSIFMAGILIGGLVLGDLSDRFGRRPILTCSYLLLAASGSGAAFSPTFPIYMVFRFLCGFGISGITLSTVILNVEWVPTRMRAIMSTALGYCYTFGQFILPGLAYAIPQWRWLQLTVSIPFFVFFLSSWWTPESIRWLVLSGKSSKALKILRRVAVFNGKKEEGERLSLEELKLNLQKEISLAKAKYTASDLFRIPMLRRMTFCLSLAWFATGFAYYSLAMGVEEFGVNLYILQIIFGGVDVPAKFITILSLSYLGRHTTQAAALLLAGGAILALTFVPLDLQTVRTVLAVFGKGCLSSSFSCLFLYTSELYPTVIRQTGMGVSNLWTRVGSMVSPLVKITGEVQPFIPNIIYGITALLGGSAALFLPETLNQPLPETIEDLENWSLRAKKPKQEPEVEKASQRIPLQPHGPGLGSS", "assay": "Drug-drug interaction (DDI) index calculation, OAT3", "conditions": "oral and intravenous administration of inhibitor", "text": "(§1) Input values for Cmax,u or C0,u calculated from clinical studies are listed in Appendix B, Table A1."}, "OAT1": {"target": "T2, OAT1 (Homo sapiens, UniProt Q4U2R8)", "T2 sequence (Q4U2R8 1-563)": "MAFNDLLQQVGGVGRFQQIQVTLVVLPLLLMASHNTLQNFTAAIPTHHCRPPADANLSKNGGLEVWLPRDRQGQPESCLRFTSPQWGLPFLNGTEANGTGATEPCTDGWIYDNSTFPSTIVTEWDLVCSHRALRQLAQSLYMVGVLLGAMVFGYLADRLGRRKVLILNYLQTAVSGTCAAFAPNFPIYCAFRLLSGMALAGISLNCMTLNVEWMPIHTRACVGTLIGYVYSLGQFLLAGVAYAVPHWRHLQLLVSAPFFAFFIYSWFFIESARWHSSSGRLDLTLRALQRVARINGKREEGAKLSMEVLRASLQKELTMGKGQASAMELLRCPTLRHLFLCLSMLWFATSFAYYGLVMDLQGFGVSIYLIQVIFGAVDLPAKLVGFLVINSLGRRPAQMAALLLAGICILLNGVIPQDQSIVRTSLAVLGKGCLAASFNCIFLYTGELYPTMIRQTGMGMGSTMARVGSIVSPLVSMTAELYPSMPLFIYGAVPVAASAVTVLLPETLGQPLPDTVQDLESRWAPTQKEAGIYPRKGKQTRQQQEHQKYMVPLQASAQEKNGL", "assay": "Drug-drug interaction (DDI) index calculation, OAT1", "conditions": "for DDI Index, PAH: acamprosate", "text": "as §1"}, "TAUT": {"tested_on": "TAUT", "conditions": "Caco-2 cells, preliminary data; cited from earlier work"}, "HEK293-Flp-In OAT1 cells": {"tested_on": "HEK293-Flp-In OAT1 cells", "assay": "CellTiter-Glo cell viability assay, OAT1 transfected cells", "conditions": "up to 3300 µM acamprosate; 3 h"}, "ASBT": {"tested_on": "ASBT", "conditions": "Caco-2 cells, preliminary data; cited from earlier work"}, "OATP2B1": {"tested_on": "OATP2B1", "conditions": "Caco-2 cells, preliminary data; cited from earlier work"}, "HEK293-Flp-In mock cells": {"tested_on": "HEK293-Flp-In mock cells", "assay": "CellTiter-Glo cell viability assay, mock cells", "conditions": "up to 3300 µM acamprosate; 3 h"}, "[4]": {"conditions": "rats, cited from earlier work"}, "PAT1": {"tested_on": "PAT1", "conditions": "Caco-2 cells, preliminary data; cited from earlier work"}, "[5]": {"assay": "Physicochemical properties", "conditions": "assay pH 7.4"}, "HEK293-Flp-In OAT3 cells": {"tested_on": "HEK293-Flp-In OAT3 cells", "assay": "CellTiter-Glo cell viability assay, OAT3 transfected cells", "conditions": "up to 3300 µM acamprosate; 3 h"}}, "note": "Where two headings read alike, the source gives them in different places. Marks after values point to notes of the source that are not given here.", "data": [{"smiles": "CC(=O)NCCCS(=O)(=O)O", "note": "[acamprosate, acetylhomotaurinate]", "values": [{"measurement": "inhibition of substrate transport via B^0,+AT/rBAT", "setting": "B^0,+AT/rBAT", "value": "did not inhibit"}, {"measurement": "inhibition of substrate transport via PEPT1", "setting": "PEPT1", "value": "did not inhibit"}, {"measurement": "logP", "setting": "[1]", "value": "−3.57"}, {"measurement": "pKa", "setting": "[1]", "value": 1.83}, {"measurement": "Cmax,u", "setting": "[2]; IV bolus, 333 mg", "value": "153 ± 38", "unit": "µM"}, {"measurement": "Cmax,u", "setting": "[2]; IV bolus, 666 mg", "value": "214 ± 10", "unit": "µM"}, {"measurement": "Cmax,u", "setting": "[2]; IV bolus, 710 mg", "value": "230 ± 64", "unit": "µM"}, {"measurement": "Cmax,u", "setting": "[2]; IV bolus, 1420 mg", "value": "486 ± 106", "unit": "µM"}, {"measurement": "Cmax,u", "setting": "[2]; IV bolus, 2130 mg", "value": "768 ± 149", "unit": "µM"}, {"measurement": "Cmax,u", "setting": "[2]; oral solution, 333 mg", "value": "1.8 ± 0.8", "unit": "µM"}, {"measurement": "Cmax,u", "setting": "[2]; oral solution, 666 mg", "value": "4.3 ± 1.4", "unit": "µM"}, {"measurement": "Cmax,u", "setting": "[2]; oral solution, 1332 mg", "value": "5.0 ± 1.7", "unit": "µM"}, {"measurement": "Cmax,u", "setting": "[2]; oral solution, 2664 mg", "value": "8.6 ± 4.1", "unit": "µM"}, {"measurement": "Cmax,u", "setting": "[2]; oral tablet, 666 mg", "value": "1.4 ± 1.1", "unit": "µM"}, {"measurement": "Cmax,u", "setting": "[2]; oral tablet, 1332 mg", "value": "1.5 ± 0.1", "unit": "µM"}, {"measurement": "contribution of active secretion to total CLR", "setting": "[2]; estimated from CLR and GFR·fu", "value": "more than 44%"}, {"measurement": "Cmax", "setting": "[3]; acamprosate, IV bolus, 333 mg", "value": "153 ± 38", "unit": "µM"}, {"measurement": "Cmax", "setting": "[3]; acamprosate, IV bolus, 666 mg", "value": "214 ± 10", "unit": "µM"}, {"measurement": "Cmax", "setting": "[3]; acamprosate, IV bolus, 710 mg", "value": "230 ± 64", "unit": "µM"}, {"measurement": "Cmax", "setting": "[3]; acamprosate, IV bolus, 1420 mg", "value": "486 ± 106", "unit": "µM"}, {"measurement": "Cmax", "setting": "[3]; acamprosate, IV bolus, 2130 mg", "value": "768 ± 149", "unit": "µM"}, {"measurement": "fu, fraction unbound in plasma", "setting": "[3]; acamprosate, all doses and routes of Table A1", "value": "1 [5]"}, {"measurement": "Cmax", "setting": "[3]; acamprosate, oral solution, 333 mg", "value": "1.8 ± 0.8", "unit": "µM"}, {"measurement": "Cmax", "setting": "[3]; acamprosate, oral solution, 666 mg", "value": "4.3 ± 1.4", "unit": "µM"}, {"measurement": "Cmax", "setting": "[3]; acamprosate, oral solution, 1332 mg", "value": "5 ± 1.7", "unit": "µM"}, {"measurement": "Cmax", "setting": "[3]; acamprosate, oral solution, 2664 mg", "value": "8.6 ± 4.1", "unit": "µM"}, {"measurement": "Cmax", "setting": "[3]; acamprosate, oral tablet, 666 mg", "value": "1.4 ± 1.1", "unit": "µM"}, {"measurement": "Cmax", "setting": "[3]; acamprosate, oral tablet, 1332 mg", "value": "1.5 ± 0.1", "unit": "µM"}, {"measurement": "plasma levels", "setting": "[3]; administered orally, humans", "value": "1 to 9", "unit": "µM"}, {"measurement": "metabolism in humans", "setting": "[3]", "value": "not metabolized"}, {"measurement": "share of the eliminated dose accounted for by renal clearance (CLR)", "setting": "[3]", "value": "> 95", "unit": "%"}, {"measurement": "renal clearance (CLR) of unbound acamprosate", "setting": "[3]; healthy adults", "value": "13.4 to 23.4", "unit": "L/h"}, {"measurement": "fu (plasma protein binding)", "setting": "[3]; humans", "value": 1}, {"measurement": "initial unbound plasma concentration (C0,u)", "setting": "[3]; intravenous (bolus), doses of 333–2130 mg", "value": "154 to 768", "unit": "µM"}, {"measurement": "unbound steady-state plasma concentration (Cmax,u)", "setting": "[3]; oral, doses of 333–2130 mg", "value": "2 to 5", "unit": "µM"}, {"measurement": "DDI index, substrate E3S", "setting": "OAT3", "value": "<<0.02 ^a, b"}, {"measurement": "DDI Index, PAH", "setting": "OAT1; IV bolus, 333 mg", "value": "0.12–0.53 *"}, {"measurement": "DDI Index, PAH", "setting": "OAT1; IV bolus, 666 mg", "value": "0.17–0.75 *"}, {"measurement": "DDI Index, PAH", "setting": "OAT1; IV bolus, 710 mg", "value": "0.19–0.80 *"}, {"measurement": "DDI Index, PAH", "setting": "OAT1; IV bolus, 1420 mg", "value": "0.40–1.69 *"}, {"measurement": "DDI Index, PAH", "setting": "OAT1; IV bolus, 2130 mg", "value": "0.62–2.68 *"}, {"measurement": "DDI Index, PAH", "setting": "OAT1; oral solution, 333 mg", "value": "0.00–0.01"}, {"measurement": "DDI Index, PAH", "setting": "OAT1; oral solution, 666 mg", "value": "0.00–0.01"}, {"measurement": "DDI Index, PAH", "setting": "OAT1; oral solution, 1332 mg", "value": "0.00–0.02"}, {"measurement": "DDI Index, PAH", "setting": "OAT1; oral solution, 2664 mg", "value": "0.01–0.03"}, {"measurement": "DDI Index, PAH", "setting": "OAT1; oral tablet, 666 mg", "value": "0.00–0.00"}, {"measurement": "DDI Index, PAH", "setting": "OAT1; oral tablet, 1332 mg", "value": "0.001–0.01"}, {"measurement": "DDI index, substrate PAH", "setting": "OAT1; oral administration of inhibitor, range over doses", "value": "0.001–0.008"}, {"measurement": "inhibition of substrate transport via TAUT", "setting": "TAUT", "value": "did not inhibit"}, {"measurement": "decrease in cell viability", "setting": "HEK293-Flp-In OAT1 cells", "value": "≤ 10", "unit": "%"}, {"measurement": "inhibition of substrate transport via ASBT", "setting": "ASBT", "value": "did not inhibit"}, {"measurement": "inhibition of substrate transport via OATP2B1", "setting": "OATP2B1", "value": "did not inhibit"}, {"measurement": "decrease in cell viability", "setting": "HEK293-Flp-In mock cells", "value": "≤ 10", "unit": "%"}, {"measurement": "CLR, % of the initial CLR", "setting": "[4]; 9.3 mg/kg acamprosate i.v. with 33.3 mg/kg probenecid", "value": 59, "unit": "%"}, {"measurement": "CLR, % of the initial CLR", "setting": "[4]; 9.3 mg/kg acamprosate i.v. with 66.6 mg/kg probenecid", "value": 45, "unit": "%"}, {"measurement": "unbound acamprosate CLR with probenecid, compared to control", "setting": "[4]", "value": 0.45, "unit": "fold"}, {"measurement": "increase in acamprosate AUC0∞ caused by probenecid", "setting": "[4]; compared to control", "value": 2.2, "unit": "fold"}, {"measurement": "renal clearance (CLR)", "setting": "[4]; intravenous 9.3 mg/kg acamprosate, without probenecid", "value": 0.35, "unit": "L/h"}, {"measurement": "inhibition of substrate transport via PAT1", "setting": "PAT1", "value": "did not inhibit"}, {"measurement": "ionized at the assay pH", "setting": "[5]", "value": "> 99", "unit": "%"}, {"measurement": "decrease in cell viability", "setting": "HEK293-Flp-In OAT3 cells", "value": "≤ 10", "unit": "%"}]}]}
